Experiments:
Assay type in all cases: biochemical
[1] = molecular target: T1, Abl kinase (Homo sapiens, UniProt P00519); assay: Abl kinase assay A1; details: for inhibition at 10 µM: read-out: Results, % @ concentration μM, Method A1
T1 sequence (P00519 229-512): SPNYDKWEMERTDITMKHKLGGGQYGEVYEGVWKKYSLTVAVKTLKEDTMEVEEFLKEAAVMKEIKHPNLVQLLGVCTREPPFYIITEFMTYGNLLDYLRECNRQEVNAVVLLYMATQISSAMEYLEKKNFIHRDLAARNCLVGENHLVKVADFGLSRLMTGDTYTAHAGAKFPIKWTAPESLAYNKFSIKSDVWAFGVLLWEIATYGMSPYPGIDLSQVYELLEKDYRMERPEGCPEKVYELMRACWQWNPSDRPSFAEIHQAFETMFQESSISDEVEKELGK
Description: (§1) IC50 values were calculated from a series of percent inhibition values determined at a range of inhibitor concentrations using software routines as implemented in the GraphPad Prism software package.

[2] = molecular target: B-Raf(V599E) kinase (Homo sapiens, UniProt P15056, V600E); assay: B-Raf(V599E) kinase assay B1; details: for inhibition at 1 µM: read-out: Results, % @ concentration μM; for IC50: Method B1, construct 1
Description: The test compounds were incubated with the reaction mixture at 30° C. for 2 h. […] The reaction rate was calculated using the 1.5 h to 2.5 h time frame. […] IC50 values were calculated from a series of percent inhibition values determined at a range of inhibitor concentrations using software routines as implemented in the GraphPad Prism software package.

[3] = molecular target: phosphorylated p-38-alpha kinase (Homo sapiens, UniProt Q16539); assay: P-38 alpha kinase assay P1; details: Method P1; 2 h pre-incubation before ATP
[4] = molecular target: KDR kinase (Homo sapiens, UniProt P35968, DEL940-989/E990V); assay: KDR kinase assay K1; details: for inhibition at 10 µM: read-out: Results, % @ concentration μM, Method K1; for IC50: Method K1
Description: as §1

[5] = molecular target: T2, phospho p-38 alpha kinase (Homo sapiens, UniProt Q16539); assay: P-38 alpha kinase assay (spectrophotometric, pyruvate kinase/lactate dehydrogenase coupled); details: Table 5; for IC50: assay not named, read-out: uM
T2 construct: purchased Panvera

[6] = molecular target: T1, Abl kinase; assay: Abl kinase assay A2; details: for IC50: Method A2, 2 h pre-incubation, 0.5 mM ATP
Description: as §1

[7] = Method A1, read-out: Results, μM (IC50)

Chain of B-Raf(V599E) kinase (P15056 with tags, fused parts or gaps V600E): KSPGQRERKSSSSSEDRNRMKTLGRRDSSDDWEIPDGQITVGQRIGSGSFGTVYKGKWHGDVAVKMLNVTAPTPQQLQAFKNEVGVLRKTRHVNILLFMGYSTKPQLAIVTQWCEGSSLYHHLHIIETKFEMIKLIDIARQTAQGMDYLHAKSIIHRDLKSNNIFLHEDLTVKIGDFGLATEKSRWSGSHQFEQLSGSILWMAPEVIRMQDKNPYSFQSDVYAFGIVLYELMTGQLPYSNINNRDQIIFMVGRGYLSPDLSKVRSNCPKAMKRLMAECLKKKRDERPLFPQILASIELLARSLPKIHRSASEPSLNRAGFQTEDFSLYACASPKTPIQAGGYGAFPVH
Chain of KDR kinase (P35968 with tags, fused parts or gaps DEL940-989/E990V): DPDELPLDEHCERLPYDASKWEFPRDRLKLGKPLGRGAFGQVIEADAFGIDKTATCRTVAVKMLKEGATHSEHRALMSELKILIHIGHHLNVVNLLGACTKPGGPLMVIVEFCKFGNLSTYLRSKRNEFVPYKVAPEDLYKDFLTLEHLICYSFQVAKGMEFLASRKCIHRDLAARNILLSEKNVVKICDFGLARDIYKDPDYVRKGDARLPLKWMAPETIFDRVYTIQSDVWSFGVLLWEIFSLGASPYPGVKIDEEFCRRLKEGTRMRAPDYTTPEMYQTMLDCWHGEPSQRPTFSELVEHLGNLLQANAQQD
T2 sequence (Q16539 whole entry): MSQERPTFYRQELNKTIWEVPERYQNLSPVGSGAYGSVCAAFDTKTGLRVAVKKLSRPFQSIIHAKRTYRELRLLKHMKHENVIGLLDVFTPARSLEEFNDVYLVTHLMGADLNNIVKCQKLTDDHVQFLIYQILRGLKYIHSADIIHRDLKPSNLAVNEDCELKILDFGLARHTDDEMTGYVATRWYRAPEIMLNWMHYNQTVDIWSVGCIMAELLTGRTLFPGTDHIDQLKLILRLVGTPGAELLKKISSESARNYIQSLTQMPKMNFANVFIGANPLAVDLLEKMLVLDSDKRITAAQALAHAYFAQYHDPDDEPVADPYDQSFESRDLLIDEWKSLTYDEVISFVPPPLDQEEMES
Chain of phosphorylated p-38-alpha kinase (Q16539 1-360 isoform Q16539-2): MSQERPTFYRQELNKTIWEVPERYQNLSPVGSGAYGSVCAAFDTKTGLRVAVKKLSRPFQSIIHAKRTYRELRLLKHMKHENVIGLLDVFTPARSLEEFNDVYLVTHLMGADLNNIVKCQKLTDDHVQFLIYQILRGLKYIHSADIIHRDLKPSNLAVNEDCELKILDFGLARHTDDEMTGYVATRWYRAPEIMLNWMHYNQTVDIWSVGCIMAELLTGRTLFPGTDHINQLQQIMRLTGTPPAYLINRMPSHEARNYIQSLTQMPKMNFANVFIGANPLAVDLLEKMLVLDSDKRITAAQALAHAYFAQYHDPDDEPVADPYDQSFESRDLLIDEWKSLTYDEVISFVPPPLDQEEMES

| SMILES | inhibition at 10 µM [1] | IC50 [3] | inhibition at 10 µM [4] | IC50 [5] | IC50 [2] | IC50 [4] | further results |
| --- | --- | --- | --- | --- | --- | --- | --- |
| O=C(O)Cc1cccc(-n2nc(-c3ccccc3F)cc2NC(=O)Nc2cccc(Cl)c2Cl)c1 [Example 433, 2-(3-(5-(3-(2,3-dichlorophenyl)ureido)-3-(2-fluorophenyl)-1H-pyrazol-1-yl)phenyl)acetic acid] | 39% | 0.007 µM | 63% | – | – | – | inhibition at 1 µM [2]: 37% |
| O=C(O)Cc1cccc(-n2nc(C3CCCC3)cc2NC(=O)Nc2cccc(Cl)c2Cl)c1 [Example 434, 2-(3-(3-cyclopentyl-5-(3-(2,3-dichlorophenyl)ureido)-1H-pyrazol-1-yl)phenyl)acetic acid] | – | 0.004 µM | – | 1.9 µM | 0.006 µM | 2.9 µM | IC50 [1, 7]: 3.9 µM |
| O=C(O)Cc1ccc(-n2nc(C3CCCC3)cc2NC(=O)Nc2cccc(Cl)c2Cl)cc1 [Example 441, 2-(4-(3-cyclopentyl-5-(3-(2,3-dichlorophenyl)ureido)-1H-pyrazol-1-yl)phenyl)acetic acid] | 44% | 0.005 µM | 62% | – | 0.037 µM | – | – |
| NC(=O)Cc1cccc(-n2nc(C3CCCC3)cc2NC(=O)Nc2cccc(Cl)c2Cl)c1 [Example 446, 1-(1-(3-(2-amino-2-oxoethyl)phenyl)-3-cyclopentyl-1H-pyrazol-5-yl)-3-(2,3-dichlorophenyl)urea] | – | 0.005 µM | – | – | 0.016 µM | 1.5 µM | IC50 [6]: 4.8 µM |
| O=C(Nc1cccc(Cl)c1Cl)Nc1cc(-c2cccs2)nn1-c1cccc(CC(=O)N2CC[C@H](O)C2)c1 [Example 463, 1-(2,3-dichlorophenyl)-3-(1-(3-(2-((S)-3-hydroxypyrrolidin-1-yl)-2-oxoethyl)phenyl)-3-(thiophen-2-yl)-1H-pyrazol-5-yl)urea] | 44% | 0.025 µM | 47% | 0.056 µM | – | – | inhibition at 1 µM [2]: 23% |
| NC(=O)Cc1ccc(-n2nc(-c3ccccc3F)cc2NC(=O)Nc2cccc(Cl)c2Cl)cc1 [Example 466, 1-(1-(4-(2-amino-2-oxoethyl)phenyl)-3-(2-fluorophenyl)-1H-pyrazol-5-yl)-3-(2,3-dichlorophenyl)urea] | – | 0.038 µM | 50% | 0.007 µM | – | – | IC50 [1, 7]: 1.2 µM; inhibition at 1 µM [2]: 24% |
| NC(=O)Cc1ccc(-n2nc(C3CCCC3)cc2NC(=O)Nc2cccc(Cl)c2Cl)cc1 [Example 467, 1-(1-(4-(2-amino-2-oxoethyl)phenyl)-3-cyclopentyl-1H-pyrazol-5-yl)-3-(2,3-dichlorophenyl)urea] | – | 0.011 µM | – | 0.119 µM | 0.032 µM | 2.9 µM | IC50 [1, 7]: 4.8 µM |
| CC(C)(C)c1cc(NC(=O)Nc2cccc(Cl)c2Cl)n(-c2ccc(CC(=O)N3CC[C@H](O)C3)cc2)n1 [Example 478, (S)-1-(3-tert-butyl-1-(4-(2-(3-hydroxypyrrolidin-1-yl)-2-oxoethyl)phenyl)-1H-pyrazol-5-yl)-3-(2,3-dichlorophenyl)urea] | 91% | 0.006 µM | 99% | – | 0.028 µM | – | – |
| CC(C)(C)c1cc(NC(=O)Nc2cccc(Cl)c2Cl)n(-c2cccc(CN3C(=O)NC(=O)C3=O)c2)n1 [Example 482, 1-(3-tert-butyl-1-(3-((2,4,5-trioxoimidazolidin-1-yl)methyl)phenyl)-1H-pyrazol-5-yl)-3-(2,3-dichlorophenyl)urea] | – | – | – | 0.084 µM | 0.0038 µM | 1.4 µM | IC50 [1, 7]: 3.2 µM |
| NC(=O)Cc1cccc(-c2ccc(C(F)(F)F)cc2NC(=O)Nc2ccc(-c3cccc4c3CNC4=O)cc2)c1 [Example 483, [1,1′-biphenyl]-2′-(3-(4-(1-oxoisoindolin-4-yl)phenyl)ureido)-4′-(trifluoromethyl)-3-acetic acid amide] | – | 0.027 µM | – | 0.27 µM | 0.014 µM | 0.21 µM | IC50 [1, 7]: 11.3 µM |
| CC(C)(C)c1cc(NC(=O)Nc2ccc(F)c(F)c2F)n(-c2cccc(CC(N)=O)c2)n1 [Example 491, 1-(1-(3-(2-amino-2-oxoethyl)phenyl)-3-tert-butyl-1H-pyrazol-5-yl)-3-(2,3,4-trifluorophenyl)urea] | – | 0.013 µM | 77% | – | 0.007 µM | – | inhibition at 10 µM ([6]; read-out: Results, % @ concentration μM): 78% |
| CC(C)(C)c1cc(NC(=O)Nc2ccc(F)c(F)c2F)n(-c2ccc(CC(=O)O)cc2)n1 [Example 492, 2-(4-(3-tert-butyl-5-(3-(2,3,4-trifluorophenyl)ureido)-1H-pyrazol-1-yl)phenyl)acetic acid] | 49% | 0.008 µM | 50% | 0.04 µM | 0.028 µM | – | – |
| CC(C)(C)c1cc(NC(=O)Nc2cc(F)c(F)cc2F)n(-c2cccc(CC(N)=O)c2)n1 [Example 494, 1-(1-(3-(2-amino-2-oxoethyl)phenyl)-3-tert-butyl-1H-pyrazol-5-yl)-3-(2,4,5-trifluorophenyl)urea] | 96% | 0.068 µM | 82% | 0.67 µM | 0.007 µM | – | – |
| CC(C)(C)c1cc(NC(=O)Nc2ccc(F)cc2F)n(-c2cccc(CC(N)=O)c2)n1 [Example 496, 1-(1-(3-(2-amino-2-oxoethyl)phenyl)-3-tert-butyl-1H-pyrazol-5-yl)-3-(2,4-difluorophenyl)urea] | 66% | – | – | – | 0.01 µM | 2.4 µM | – |
| CC(C)(C)c1cc(NC(=O)Nc2ccc(F)cc2F)n(-c2ccc(CC(=O)O)cc2)n1 [Example 497, 2-(4-(3-tert-butyl-5-(3-(2,4-difluorophenyl)ureido)-1H-pyrazol-1-yl)phenyl)acetic acid] | 30% | – | 43% | – | 0.045 µM | – | – |
| CC(C)(C)c1cc(NC(=O)Nc2ccc(F)cc2F)n(-c2ccc(CC(N)=O)cc2)n1 [Example 498, 1-(1-(4-(2-amino-2-oxoethyl)phenyl)-3-tert-butyl-1H-pyrazol-5-yl)-3-(2,4-difluorophenyl)urea] | 48% | 0.041 µM | 60% | – | 0.074 µM | – | % @ concentration, uM ([5]; @ 1 uM): 25% @1 |
| CC(C)(C)c1cc(NC(=O)Nc2ccc(F)cc2F)n(-c2cccc(C#N)c2)n1 [Example 499, 1-(3-tert-butyl-1-(3-cyanophenyl)-1H-pyrazol-5-yl)-3-(2,4-difluorophenyl)urea] | 88% | 0.046 µM | – | – | 0.026 µM | 0.4 µM | % @ concentration, uM ([5]; @ 0.1 uM): 78%; % @ concentration, uM ([5]; @ 1 uM): 95% |
| CC(C)(C)c1cc(NC(=O)Nc2cccc(Oc3cnccn3)c2)n(-c2cccc(CC(N)=O)c2)n1 [Example 504, 1-(1-(3-(2-amino-2-oxoethyl)phenyl)-3-tert-butyl-1H-pyrazol-5-yl)-3-(3-(pyrazin-2-yloxy)phenyl)urea] | – | 0.082 µM | – | – | 0.043 µM | 0.049 µM | IC50 [1]: 0.063 µM |
| CNC(=O)c1cc(Oc2ccc(NC(=O)Nc3cc(C(C)(C)C)nn3-c3cccc(CC(N)=O)c3)cc2)ccn1 [Example 506, 1-(1-(3-(2-amino-2-oxoethyl)phenyl)-3-tert-butyl-1H-pyrazol-5-yl)-3-(4-(2-(methylcarbamoyl)pyridin-4-yloxy)phenyl)urea] | – | 0.009 µM | – | 0.042 µM | 0.02 µM | 0.021 µM | IC50 [6]: 0.0066 µM |
| CC(C)(C)c1cc(NC(=O)Nc2ccc(-c3cccc4c3CNC4=O)cc2)n(-c2cccc(CC(N)=O)c2)n1 [Example 510, 1-(1-(3-(2-amino-2-oxoethyl)phenyl)-3-tert-butyl-1H-pyrazol-5-yl)-3-(4-(1-oxoisoindolin-4-yl)phenyl)urea] | – | 0.12 µM | – | 0.47 µM | 0.21 µM | 0.007 µM | IC50 [6]: 0.062 µM |
| Cn1c(=O)c(-c2cccc(NC(=O)Nc3cc(C(C)(C)C)nn3-c3cccc(CC(N)=O)c3)c2)cc2cncnc21 [Example 513, 1-(1-(3-(2-amino-2-oxoethyl)phenyl)-3-tert-butyl-1H-pyrazol-5-yl)-3-(3-(8-methyl-7-oxo-7,8-dihydropyrido[2,3-d]pyrimidin-6-yl)phenyl)urea] | – | 0.012 µM | – | 0.41 µM | 0.008 µM | – | IC50 [6]: 0.023 µM |
| Cc1ccc(NC(=O)Nc2cc(C(C)(C)C)nn2-c2cccc(CC(N)=O)c2)cc1Nc1nccc(-c2cccnc2)n1 [Example 516, 1-(1-(3-(2-amino-2-oxoethyl)phenyl)-3-tert-butyl-1H-pyrazol-5-yl)-3-(4-methyl-3-(4-(pyridin-3-yl)pyrimidin-2-ylamino)phenyl)urea] | – | – | – | 0.45 µM | 0.022 µM | – | IC50 [6]: 0.0018 µM |

Source: patent publication US20090312349A1, “ANTI-INFLAMMATORY MEDICAMENTS” (priority 2004, published 2009)
